In PMC11267568 (2024) one finds KD and binding data, which are given here for one compound.

SMILES strings stand for the structures.

What all share (experiment): in-line probing
In assay [1] the test system is r10-2 (RNA, aptamer) GGACCUCGAGGCUACCGCAGCUGGCUCUCGGACGACUAUGCCUCGCGUGGAUAUGGCACGCGUAGAAGGGCACCGUAAAUGUCCUACUUGCGGUAGUCAUCCCGAUGGA
To be noted: 10 mM MgCl2, 50 mM KCl (1x of 2x buffer); 25 mM Tris-HCl pH 8.3 (1x), room temperature, ~48 h.

Assay [2] concerns 11-1 (RNA, aptamer) GGCUACCGCCGCUGGCUCUCGGGCGACUGUGCCUCGCGUGGAUAUGGCACGCGUAGAAGGGCACCGUAAAUGUCCUACUUGCGGUAGUCAUCCCGAUGGACACUGUCGGCGUAG
To be noted: 10 mM MgCl2, 50 mM KCl (1x of 2x buffer); 25 mM Tris-HCl pH 8.3 (1x), room temperature, ~48 h.

Assay [3] deals with 11-19A (RNA, aptamer) GGCUACCGCCGCUGGGCUCUCGGGACGACACUGAGGGAACGCGUGGAUAUGGCACGCAACAGCGGGCACCGUAAAUGUCCUGGCGGUAGUC
To be noted: 10 mM MgCl2, 50 mM KCl (1x of 2x buffer); 25 mM Tris-HCl pH 8.3 (1x), room temperature, ~48 h.

Assay [4] deals with r10-1 (RNA, aptamer) GGACCUCGAGGCUACCGCGGCUGGCUCUCGGACGACUAUGCCUCGCGUGGAUAUGGCACGCGUAGAAGGGCACCGUAAAUGUCCUACUUGCGGUAGUCAUCCCGAUGGA
To be noted: 10 mM MgCl2, 50 mM KCl (1x of 2x buffer); 25 mM Tris-HCl pH 8.3 (1x), room temperature, ~48 h.

In assay [5] the test system is 11-19 (RNA, aptamer) GGCUACCGCCGCUGGGCUCUCGGGACGACACUGAGGGAACGCGUGGAUAUGGCACGCAACAGCGGGCACCGUAAAUGUCCUGGCGGUAGUCGACCCGAUGGACACUGUCGGCGUAG
As to conditions: 10 mM MgCl2, 50 mM KCl (1x of 2x buffer); 0.1 to 10 μM branaplam.

For assay [6], the system named is r10-1G (RNA, aptamer) GGCUGGCUUCGGCCUCGCGUGGAUAUGGCACGCGUAGAAGGGCACCGUAAAUGUCCUACUU
To be noted: 10 mM MgCl2, 50 mM KCl (1x of 2x buffer); 25 mM Tris-HCl pH 8.3 (1x), room temperature, ~48 h.

In assay [7] the test system is r10-4 (RNA, aptamer) GGACCUCGAGGCUACCGCGGCUGGCUCUCGGACGACUAUGCCUCGCGUGGAUAUGGCACGCGUAGAAGGGCACCGUAAAUGCCCUACUUGCGGUAGUCAUCCCGAUGGA
To be noted: 10 mM MgCl2, 50 mM KCl (1x of 2x buffer); 25 mM Tris-HCl pH 8.3 (1x), room temperature, ~48 h.

For assay [8], the system named is r10-1N (RNA, aptamer) GGCCUCGCGUGGAUAUGGCACGCGUAGAAGGGCACCGUAAAUGUCCUA
To be noted: 10 mM MgCl2, 50 mM KCl (1x of 2x buffer); 25 mM Tris-HCl pH 8.3 (1x), room temperature, ~48 h.

For assay [9], the system named is t14-4 (RNA, aptamer) GGCUGAUCUCCCAUCGGUAUGCCCUUCUGUGUGAAGGCGGUACUAAUGCCGGAGUGUAGAAACUGGAUAAUGCCAGUUAGUGGUAUGGAGAUACUACGACGCACGC
As to conditions: 10 mM MgCl2, 50 mM KCl (1x of 2x buffer); 25 mM Tris-HCl pH 8.3 (1x), room temperature, ~48 h.

In assay [10] the test system is r10-1C-M1 (RNA, aptamer) GGCUACCGCGGCUGGCUUCGGCCUCGCGUGGAUAUAACACGCGUAGAAGGGCACCGUAAAUGUCCUACUUGCGGUAGUC
To be noted: 10 mM MgCl2, 50 mM KCl (1x of 2x buffer); up to 10 μM branaplam; 25 mM Tris-HCl pH 8.3, room temperature.

Assay [11] deals with 11-1B (RNA, aptamer) GGCUACCGCCGCUGGCUCUCGGGCGACUGUGCCUCGCGUGGAUAUGGCACGCGUAGAAGGGCACCGUAAAUGUCCUACUUGCGGUAGUC
To be noted: 10 mM MgCl2, 50 mM KCl (1x of 2x buffer); 25 mM Tris-HCl pH 8.3 (1x), room temperature, ~48 h.

Assay [12] has as its system r10-1C (RNA, aptamer) GGCUACCGCGGCUGGCUUCGGCCUCGCGUGGAUAUGGCACGCGUAGAAGGGCACCGUAAAUGUCCUACUUGCGGUAGUC
As to conditions: 10 mM MgCl2, 50 mM KCl (1x of 2x buffer); 25 mM Tris-HCl pH 8.3 (1x), room temperature, ~48 h.

Assay [13] relates to r10-3 (RNA, aptamer) GGACCUCGAGGCUACCGCGGCUGGCUCUCGGACGACUGUGCCUCGCGUGGAUAUGGCACGCGUAGAAGGACACCGUAAAUGUCCUACUUGCGGUAGUCAUCCCGAUGGA
As to conditions: 10 mM MgCl2, 50 mM KCl (1x of 2x buffer); 25 mM Tris-HCl pH 8.3 (1x), room temperature, ~48 h.

The test system of assay [14] is r10-1H (RNA, aptamer) GGCCUCGCGUGGAUAUGGCACGCGUAGAAGGGCACCGUAAAUGUCCUACUU
As to conditions: 10 mM MgCl2, 50 mM KCl (1x of 2x buffer); 25 mM Tris-HCl pH 8.3 (1x), room temperature, ~48 h.

For orientation: KD means the free concentration of one partner at which half of the binding sites on the other are occupied at equilibrium, for simple one-to-one binding. Take `CC1(C)CC(Oc2ccc(-c3ccc(-c4cn[nH]c4)cc3O)nn2)CC(C)(C)N1`: the KD in assay [1] is 623 ± 55 nM; in assay [2] it was 2.44 ± 1.03 µM; in [3], 846 ± 127 nM; in assay [4], 420 ± 41 nM; in [6], 352 ± 21 nM; in [7], 634 ± 74 nM. Also, the KD in assay [8] was determined as 150 ± 26 nM; in assay [9], 2.27 ± 0.15 µM; in assay [11], 1.17 ± 0.17 µM; in [12], 400 ± 43 nM; in [13], 964 ± 382 nM; in [14], 311 ± 19 nM. Further, the binding result is “yes” in assay [5] and “no” in assay [10].
